These results are taken from patent US9540327B2, “Bis-quaternary ammonium salts and methods for modulating neuronal nicotinic acetylcholine receptors” (University of Kentucky Research Foundation, priority 2006, dated 2017).

Test [1] has as its target T1, Rat Striatal Nicotinic Receptors ([^3H]NIC binding sites; α4β2) (Rattus norvegicus, UniProt P09483+P12390).
T1 construct: Whole brain, excluding cortex and cerebellum, was homogenized in 20 vol of ice-cold buffer; from tissue; host or cells: rat brain membranes (whole brain excluding cortex and cerebellum)
Description: Inhibition of [^3H]nicotine binding to rat brain membranes. The procedure: (§1) Whole brain, excluding cortex and cerebellum, was homogenized in 20 vol of ice-cold buffer, containing (in mM): 2 HEPES, 11.8 NaCl, 0.48 KCl, 0.25 CaCl2 and 0.12 MgSO4, pH 7.5. Homogenate was centrifuged (25,000 g, 15 min, 4° C.). Pellets were resuspended in 20 vol buffer and incubated at 37° C., for 10 min, cooled to 4° C. and centrifuged (25,000 g, 15 min, 4° C.). Pellets were resuspended and centrifuged using the same conditions. Final pellets were stored in assay buffer, containing (in mM): 20 HEPES, 118 NaCl, 4.8 KCl, 2.5 CaCl2, and 1.2 MgSO4, pH 7.5 at −70° C. Upon use, final pellets were resuspended in ˜20 vol assay buffer. Samples (250 μl) contained 100-140 μg of membrane protein, 3 nM [^3H]nicotine or 3 nM [^3H]methyllycaconitine, and analog (100 nM) in assay buffer containing 50 mM Tris. Control was in the absence of analog. In [^3H]nicotine and [^3H]methyllycaconitine binding assays, nonspecific binding was determined in the presence of 10 μM cytisine and 10 μM nicotine, respectively. Incubations proceeded for 60 min at room temperature using 96-well plates and were terminated by harvesting on Unifilter-96 GF/B filter plates presoaked in 0.5% polyethylenimine, using a Packard FilterMate harvester. After washing 5 times with 350 μl ice-cold assay buffer, filter plates were dried (60 min, […]), bottom-sealed, and filled with Packard's MicroScint 20 cocktail (40 μl/well). After 60 min, filter plates were top-sealed, and radioactivity determined using a Packard TopCount. Protein concentrations were determined using the Bradford dye-binding procedure bovine serum albumin as the standard.
(§2) […] Specific binding in the [^3H]NIC binding assay is calculated as the difference between the total binding of 3 nM [^3H]NIC and nonspecific binding in the presence of 10 μM cytisine. Specific binding for the [^3H]MLA binding assay is calculated as the difference between the total binding of 3 nM [^3H]MLA to the receptors alone and its nonspecific binding in the presence of 10 μM nicotine. Analog-induced inhibition of nicotine-evoked [^3H]DA release is calculated as a percent of that in the absence of the bis-quaternary ammonium analog.

In test [2] the target is T2, Rat Striatal Nicotinic Receptors ([^3H]MLA binding sites; α7) (Rattus norvegicus, UniProt Q05941).
T2 construct: Whole brain, excluding cortex and cerebellum, was homogenized in 20 vol of ice-cold buffer; from tissue; host or cells: rat brain membranes (whole brain excluding cortex and cerebellum)
Description: Inhibition of [^3H]methyllycaconitine binding to rat brain membranes. The procedure: as §1, §2

For test [3], the system named is Nicotine-evoked [^3H]Dopamine Release from Superfused Rat Striatal Slices. In words: Inhibition of nicotine-evoked [^3H]dopamine overflow from superfused rat striatal slices. The class given is cell-based. The settings on record: nicotine 10 μM; for inhibition at 0.1 µM: analog 100 nM, superfused rat striatal slices, read-out: Inhibition Nicotine-evoked [^3H]DA release (% inhibition at 100 nM). The procedure:
The [^3H]dopamine overflow assay using superfused rat striatal slices preloaded with [^3H]dopamine was used to determine the ability of a probe concentration (100 nM) of each bis-quaternary ammonium analog to inhibited nicotine-evoked [^3H]dopamine overflow. Briefly, coronal slices of rat striata (500 μm, 6-8 mg) were obtained using a Mcllwain tissue chopper. Slices were incubated for 30 min in Krebs' buffer (in mM: 118 NaCl, 4.7 KCl, 1.2 MgCl2, 1.0 NaH2PO4, 1.3 CaCl2, 11.1 α-D-glucose, 25 NaHCO3, 0.11 L-ascorbic acid and 0.004 ethylenediaminetetraacetic acid (EDTA), pH 7.4, saturated with 95% O2/5% CO2) at 34° C. in a metabolic shaker. Slices were then incubated for an additional 30 min in fresh buffer containing 0.1 μM [^3H]dopamine. After rinsing, each slice was transferred to each one of 20 superfusion chambers, maintained at 34° C. and superfused (0.6 ml/min) with oxygenated Krebs' buffer in a Brandel Suprafusion 2500 (Biomedical Research and Development Laboratories, Inc., Gaithersburg, Md.). The buffer contained both nomifensine (10 μM), a dopamine uptake blocker, and pargyline (10 μM), a monoamine oxidase inhibitor, ensuring that [^3H]overflow primarily represented [^3H]dopamine, rather than [^3H]metabolites. Following superfusion for 60 min, two 4-min samples (2.4 ml/sample) were collected to determine basal [^3H]outflow. After collection of the second basal sample, slices from an individual rat were superfused for 40 min in the absence (0 nM; control) or presence of each bis-quaternary ammonium analog (100 nM) to determine the intrinsic activity of the analog, i.e., ability of the analog to evoke [^3H]overflow. Following 40 min of superfusion in the absence or presence of analog, nicotine (10 μM) was added to the superfusion buffer and samples were collected for an additional 40 min to determine the ability of the analog to inhibit nicotine-evoked [^3H]dopamine overflow. At least one striatal slice in each experiment was superfused for 40 min in the absence of analog, followed by superfusion with 10 μM nicotine to determine nicotine-evoked [^3H]dopamine overflow in the absence of analog (nicotine control). After collection of the superfusate samples, the slices were retrieved from the chambers and solubilized using 1 ml of TS-2 tissue solubilizer. Scintillation cocktail (4 ml) was added to the superfusate samples. The pH and volume of the solubilized tissue samples were adjusted to that of the superfusate samples. Radioactivity in the superfusate and tissue samples was determined by liquid scintillation spectroscopy (Packard model B 1600 TR Scintillation Counter, Downer's Grove, Ill.).
For individual analogs, a complete concentration response was determined using the following methodology. Rat striatal slices (500 μm thickness, 6-8 mg wet weight) were incubated for 30 minutes in Krebs buffer (118 mM NaCl, 4.7 mM KCl, 1.2 mM MgCl2, 1.0 mM NaH2PO4, 1.3 mM CaCl2, 11.1 mM glucose, 25 mM NaHCO3, 0.11 mM L-ascorbic acid, and 0.004 mM disodium EDTA; pH 7.4, and saturated with 95% O2/5% CO2) in a metabolic shaker at 34° C. Slices were rinsed with 15 mL of fresh buffer and incubated for an additional 30 minutes in fresh buffer containing 0.1 μM [^3H]dopamine (DA; 6 slices/3 mL). Subsequently, slices were rinsed with 15 mL of fresh buffer and transferred to a glass superfusion chamber. Slices were superfused (1.0 mL/min) for 60 minutes with Krebs buffer containing nomifensine (10 μM) and pargyline (10 μM) and maintained at 34° C., pH 7.4, with continual aeration (95% O2/5% CO2). Three 5-minute samples (5 mL each) were collected to determine basal outflow of [^3H]DA. The bis-quaternary analogs were added to the superfusion buffer after the collection of the third sample and remained in the buffer until 12 consecutive five minute samples were collected. Subsequently, S-(−)-nicotine (10 μM) was added to the buffer and an additional 12 consecutive five minute samples were collected. […]

The mark [4] stands for this setting: 3 nM [^3H]nicotine, nonspecific binding with 10 μM cytisine, rat brain membranes, read-out: Inhibition of [^3H]Nicotine binding Ki (μM; M ± SEM).
[5] abbreviates: 3 nM [^3H]methyllycaconitine, nonspecific binding with 10 μM nicotine, rat brain membranes, read-out: Inhibition of [^3H]MLA Binding Ki (μM; M ± SEM).

Molecules are shown by their SMILES. Like-named read-outs stand apart in the source and are kept apart here. Where only a bound is given, the exact number is not on record here.

The Ki is a dissociation constant, usually derived from enzyme kinetics or from competition with a known ligand. The inhibition is the change of the read-out against control, counted positive when it falls.

T2 sequence (Q05941 23-502): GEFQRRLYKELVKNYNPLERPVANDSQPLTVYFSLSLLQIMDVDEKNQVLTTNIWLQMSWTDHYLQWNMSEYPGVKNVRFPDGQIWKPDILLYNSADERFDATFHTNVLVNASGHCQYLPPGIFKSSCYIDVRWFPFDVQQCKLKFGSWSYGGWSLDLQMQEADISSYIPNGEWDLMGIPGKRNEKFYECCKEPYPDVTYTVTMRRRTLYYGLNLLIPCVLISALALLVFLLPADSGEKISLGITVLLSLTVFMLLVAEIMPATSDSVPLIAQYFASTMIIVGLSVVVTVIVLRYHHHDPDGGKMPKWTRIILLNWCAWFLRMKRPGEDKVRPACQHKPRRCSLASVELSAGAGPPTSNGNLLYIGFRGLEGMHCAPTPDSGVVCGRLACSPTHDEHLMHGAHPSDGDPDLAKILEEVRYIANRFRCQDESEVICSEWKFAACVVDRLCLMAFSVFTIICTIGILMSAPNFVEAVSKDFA
T1 sequence (P09483 31-630): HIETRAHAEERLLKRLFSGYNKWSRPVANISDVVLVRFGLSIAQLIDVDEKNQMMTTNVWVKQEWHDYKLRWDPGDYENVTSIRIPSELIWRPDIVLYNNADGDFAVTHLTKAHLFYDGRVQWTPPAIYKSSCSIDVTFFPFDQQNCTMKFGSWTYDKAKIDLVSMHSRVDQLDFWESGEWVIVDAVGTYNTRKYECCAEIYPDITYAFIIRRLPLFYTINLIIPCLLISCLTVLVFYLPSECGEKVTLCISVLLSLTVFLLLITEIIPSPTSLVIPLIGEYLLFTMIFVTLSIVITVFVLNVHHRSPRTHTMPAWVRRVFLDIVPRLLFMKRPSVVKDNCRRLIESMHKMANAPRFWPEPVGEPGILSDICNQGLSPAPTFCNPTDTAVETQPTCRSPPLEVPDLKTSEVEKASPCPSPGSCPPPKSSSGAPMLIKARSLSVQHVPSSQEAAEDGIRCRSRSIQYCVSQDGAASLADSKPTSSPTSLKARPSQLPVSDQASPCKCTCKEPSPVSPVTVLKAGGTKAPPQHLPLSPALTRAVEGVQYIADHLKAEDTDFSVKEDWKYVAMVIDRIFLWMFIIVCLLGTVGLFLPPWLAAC
T1 sequence (P12390 25-500): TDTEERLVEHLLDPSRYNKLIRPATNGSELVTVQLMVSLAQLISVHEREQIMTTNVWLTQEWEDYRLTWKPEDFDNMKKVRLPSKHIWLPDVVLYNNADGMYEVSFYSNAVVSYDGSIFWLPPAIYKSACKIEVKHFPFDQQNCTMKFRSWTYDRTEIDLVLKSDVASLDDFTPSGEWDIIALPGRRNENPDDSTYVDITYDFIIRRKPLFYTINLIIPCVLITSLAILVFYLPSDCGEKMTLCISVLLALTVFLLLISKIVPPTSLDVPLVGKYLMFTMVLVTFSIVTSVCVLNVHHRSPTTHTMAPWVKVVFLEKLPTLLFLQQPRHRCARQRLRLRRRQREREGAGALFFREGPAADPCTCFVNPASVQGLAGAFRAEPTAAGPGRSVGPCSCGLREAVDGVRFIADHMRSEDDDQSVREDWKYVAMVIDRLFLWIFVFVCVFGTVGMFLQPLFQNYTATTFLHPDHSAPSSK

Take `C[n+]1cccc(CCCc2ccc[n+](C)c2)c1` [GZ-527A]: the Ki was 8.2 ± 1.78 µM in test [1] (setting [4]) and > 100 µM in test [2] (setting [5]). Further, the inhibition at 0.1 µM in test [3] turned out to be 32%.
Consider `C[n+]1cccc(CCC[n+]2ccccc2)c1` [GZ-530B], for which the Ki in test [1] is 23.4 ± 3.94 µM; in test [2], > 100 µM. Besides, the inhibition at 0.1 µM in test [3] was 9%.
With `C[n+]1ccccc1CCCc1cccc[n+]1C` [GZ-528A], the Ki in test [1] was 8.17 ± 0.17 µM; in test [2], > 100 µM. In test [3], the inhibition at 0.1 µM turned out to be 49%.
As to `C[n+]1ccc(CCCc2cc[n+](C)cc2)cc1` [GZ-527B], the figures for the Ki in test [1] and in test [2] were 7.88 ± 1.68 µM and > 100 µM, respectively. The inhibition at 0.1 µM in test [3] was determined as 67%. In addition, the “concentration dependent inhibition of the effect of nicotine to evoke [^3H]dopamine release (FIG. 1)” value in test [3] (full concentration response, rat striatal slices) is “concentration dependent inhibition”.
`Cc1ccc[n+](CCCc2ccc[n+](C)c2)c1` [GZ-529A]: the Ki in test [1] (setting [4]) and in test [2] (setting [5]) was > 100 µM throughout. Moreover, the inhibition at 0.1 µM in test [3] was 43%.
For `Cc1cc(C)c[n+](CCCc2ccc[n+](C)c2)c1` [GZ-529B], the Ki in test [1] and in test [2] was > 100 µM each time. In addition, the inhibition at 0.1 µM in test [3] is 25%.
Take `CN1CCC[C@@H]1c1ccc[n+](CCCc2ccc[n+](C)c2)c1` [GZ-530A]: the Ki is 6.62 ± 1.14 µM in test [1] and > 100 µM in test [2]. The inhibition at 0.1 µM in test [3] was found to be 43%.
Regarding `Cc1cc(CCCc2cc(C)c[n+](C)c2)c[n+](C)c1` [GZ-528B], the Ki in test [1] (setting [4]) and in test [2] (setting [5]) was > 100 µM in each case. For the same compound, the inhibition at 0.1 µM in test [3] came out at 30%.
